{
  "source": "ChEMBL document CHEMBL5634141",
  "about": "(Eur J Med Chem, 2023)",
  "key": {"[1]": {"system": "NCI-H358", "assay": "Antiproliferative activity against human NCI-H358 cells expressing KRAS G12C mutant assessed as reduction of cell growth by measuring fold decrease in IC50 incubated for 72 hrs in presence of Linsitinib by CCK-8 assay", "format": "functional"}, "[2]": {"system": "MIA PaCa-2", "assay": "Induction of apoptosis in human MIA PaCa-2 cells assessed as viable cells at 300 nM incubated for 48 hrs by Annexin V-FITC staining based flow cytometry analysis (reference value: 91.5 %)", "format": "functional", "conditions": "read-out: Activity"}, "[3]": {"system": "MIA PaCa-2", "assay": "Antitumor activity against human MIA PaCa-2 cells xenografted in BALB/c nude mouse assessed as increase in percentage of cleaved-caspase 3-positive cells at 10 to 30 mg/kg, ip administered for 16 days by immunohistochemical staining analysis", "format": "functional, organism-based", "conditions": "dose 10-30 mg/kg, time 16.0 day"}, "[4]": {"system": "MIA PaCa-2", "assay": "Induction of apoptosis in human MIA PaCa-2 cells assessed as necrotic cells at 300 nM incubated for 48 hrs by Annexin V-FITC staining based flow cytometry analysis (reference value: 1.25 %)", "format": "functional"}, "[5]": {"system": "von Hippel-Lindau disease tumor suppressor/GTPase KRas (Homo sapiens), P01116+P40337 [G12C]", "assay": "PROTAC activity at VHL/KRAS G12C mutant in human MIA PaCa-2 cells assessed as induction of protein degradation at 100 nM incubated for 1 to 8 days by Western blotting analysis", "format": "cell-based", "conditions": "time 1-8 day"}, "[6]": {"system": "MIA PaCa-2", "assay": "Antiproliferative activity against human MIA PaCa-2 cells expressing KRAS G12C mutant assessed as relative cell viability at 30 nM incubated for 72 hrs by CCK-8 assay", "format": "functional", "conditions": "read-out: Activity"}, "[7]": {"system": "SW837", "assay": "Antiproliferative activity against human SW837 cells expressing KRAS G12C mutant assessed as relative cell viability at 30 nM incubated for 72 hrs by CCK-8 assay", "format": "functional", "conditions": "read-out: Activity"}, "[8]": {"system": "Mus musculus", "assay": "In vivo PROTAC activity at VHL/KRAS G12C mutant in BALB/c nude mouse xenografted with human MIA PaCa-2 cells assessed as decrease in AKT phosphorylation at 10 to 30 mg/kg, ip administered for 16 days by Western blot analysis", "format": "functional, organism-based", "conditions": "dose 10-30 mg/kg, time 16.0 day"}, "[9]": {"assay": "Toxicity in BALB/c nude mouse xenografted with human MIA PaCa-2 cells assessed as change in body weight at 10 to 30 mg/kg, ip measured after 16 days", "format": "organism-based", "conditions": "in vivo, 384 h, dose 10-30 mg/kg, time 16 day"}, "[10]": {"system": "NCI-H358", "assay": "Induction of apoptosis in human NCI-H358 cells assessed as early apoptotic cells at 300 nM incubated for 48 hrs by Annexin V-FITC staining based flow cytometry analysis (reference value: 1.60 %)", "format": "functional"}, "[11]": {"system": "von Hippel-Lindau disease tumor suppressor/GTPase KRas (Homo sapiens), P01116+P40337 [G12C]", "assay": "PROTAC activity at VHL/KRAS G12C mutant in human MIA PaCa-2 cells assessed as induction of protein degradation in presence of MG132 by Western blot analysis", "format": "cell-based"}, "[12]": {"system": "MIA PaCa-2", "assay": "Induction of apoptosis in human MIA PaCa-2 cells assessed as necrotic cells at 30 nM incubated for 48 hrs by Annexin V-FITC staining based flow cytometry analysis (reference value: 1.25 %)", "format": "functional"}, "[13]": {"system": "SW837", "assay": "Antiproliferative activity against human SW837 cells expressing KRAS G12C mutant assessed as relative cell viability at 30 nM incubated for 72 hrs in presence of daclolisib by CCK-8 assay", "format": "functional", "conditions": "read-out: Activity"}, "[14]": {"system": "von Hippel-Lindau disease tumor suppressor/GTPase KRas (Homo sapiens), P01116+P40337 [G12C]", "assay": "PROTAC activity at VHL/KRAS G12C mutant in human NCI-H358 cells assessed as induction of protein degradation at 100 nM incubated for 48 hrs followed by compound washout and measured after 48 hrs by Western blotting analysis", "format": "cell-based"}, "[15]": {"system": "NCI-H358", "assay": "Antiproliferative activity against human NCI-H358 cells expressing KRAS G12C mutant assessed as relative cell viability at 30 nM incubated for 72 hrs in presence of infigratinib by CCK-8 assay", "format": "functional", "conditions": "read-out: Activity"}, "[16]": {"system": "MIA PaCa-2", "assay": "Induction of apoptosis in human MIA PaCa-2 cells assessed as necrotic cells at 100 nM incubated for 48 hrs by Annexin V-FITC staining based flow cytometry analysis (reference value: 1.25 %)", "format": "functional"}, "[17]": {"assay": "Toxicity in ICR mouse assessed as side effects at 2 mg/kg, iv measured after 24 hrs", "format": "organism-based", "conditions": "in vivo"}, "[18]": {"system": "von Hippel-Lindau disease tumor suppressor/GTPase KRas (Homo sapiens), P01116+P40337 [G12C]", "assay": "PROTAC activity at VHL/KRAS G12C mutant in human MIA PaCa-2 cells assessed as inhibition of ERK phosphorylation at 100 nM incubated for 1 to 8 days by Western blotting analysis", "format": "cell-based", "conditions": "time 1-8 day"}, "[19]": {"system": "NCI-H358", "assay": "Induction of apoptosis in human NCI-H358 cells assessed as early apoptotic cells at 100 nM incubated for 48 hrs by Annexin V-FITC staining based flow cytometry analysis (reference value: 1.60 %)", "format": "functional"}, "[20]": {"system": "NCI-H358", "assay": "Synergistic antiproliferative activity against human NCI-H358 cells expressing KRAS G12C mutant assessed as combination index at 30 nM incubated for 72 hrs in presence of naporafenib by CCK-8 assay", "format": "functional"}, "[21]": {"system": "MIA PaCa-2", "assay": "Inhibition of colony formation in human MIA PaCa-2 cells expressing KRAS G12C mutant assessed as reduction in cell number at 30 nM incubated for 14 days in presence of AZD4573 by crystal violet staining based analysis", "format": "functional", "conditions": "time 14.0 day"}, "[22]": {"system": "NCI-H358", "assay": "Induction of apoptosis in human NCI-H358 cells assessed as late apoptotic cells at 30 nM incubated for 48 hrs by Annexin V-FITC staining based flow cytometry analysis (reference value: 5.20 %)", "format": "functional"}, "[23]": {"system": "NCI-H358", "assay": "Antiproliferative activity against human NCI-H358 cells expressing KRAS G12C mutant assessed as inhibition of cell growth at 100 nM incubated for 8 days by CCK-8 assay", "format": "functional, cell-based", "conditions": "time 8.0 day"}, "[24]": {"system": "NCI-H358", "assay": "Induction of apoptosis in human NCI-H358 cells assessed as viable cells at 30 nM incubated for 48 hrs by Annexin V-FITC staining based flow cytometry analysis (reference value: 91.6 %)", "format": "functional", "conditions": "read-out: Activity"}, "[25]": {"assay": "Half life in ICR mouse at 30 mg/kg, ip measured after 24 hrs by LC-MS/MS analysis", "format": "ADME, organism-based", "conditions": "in vivo"}, "[26]": {"system": "NCI-H358", "assay": "Antiproliferative activity against human NCI-H358 cells expressing KRAS G12C mutant assessed as reduction of cell growth by measuring fold decrease in IC50 incubated for 72 hrs in presence of SHP099 by CCK-8 assay", "format": "functional"}, "[27]": {"system": "NCI-H23", "assay": "Antiproliferative activity against human NCI-H23 cells expressing KRAS G12C mutant assessed as relative cell viability at 30 nM incubated for 72 hrs in presence of daclolisib by CCK-8 assay", "format": "functional", "conditions": "read-out: Activity"}, "[28]": {"system": "MIA PaCa-2", "assay": "Antiproliferative activity against human MIA PaCa-2 cells expressing KRAS G12C mutant assessed as relative cell viability at 30 nM incubated for 72 hrs in presence of crizotinib by CCK-8 assay", "format": "functional", "conditions": "read-out: Activity"}, "[29]": {"system": "MIA PaCa-2", "assay": "Antitumor activity against human MIA PaCa-2 cells xenografted in BALB/c nude mouse assessed as tumor growth inhibition at 30 mg/kg, ip measured after 16 days relative to control", "format": "functional", "conditions": "MIA PaCa-2, 384 h, time 16 day, read-out: TGI"}, "[30]": {"system": "NCI-H358", "assay": "Antiproliferative activity against human NCI-H358 cells expressing KRAS G12C mutant assessed as relative cell viability at 30 nM incubated for 72 hrs in presence of crizotinib by CCK-8 assay", "format": "functional", "conditions": "read-out: Activity"}, "[31]": {"system": "NCI-H23", "assay": "Antiproliferative activity against human NCI-H23 cells expressing KRAS G12C mutant assessed as relative cell viability at 30 nM incubated for 72 hrs by CCK-8 assay", "format": "functional", "conditions": "read-out: Activity"}},
  "note": "Calls of active or inactive are those of the source. No cut-off for these calls is given here.",
  "data": [
    {"smiles": "C=CC(=O)N1CCN(c2nc(=O)n(-c3c(C)ccnc3C(C)C)c3nc(-c4c(F)cccc4OCC4CCN(CCCC(=O)N[C@H](C(=O)N5C[C@H](O)C[C@H]5C(=O)NCc5ccc(-c6scnc6C)cc5)C(C)(C)C)CC4)c(F)cc23)[C@@H](C)C1", "values": [
      {"measurement": "fold change (FC)", "setting": "[1]", "value": "~4"},
      {"measurement": "viability at 0.3 µM", "setting": "[2]", "value": 66.4, "unit": "%"},
      {"measurement": "Activity", "setting": "[3]", "value": "Active"},
      {"measurement": "Activity", "setting": "[4]", "value": 4.08, "unit": "%"},
      {"measurement": "Activity", "setting": "[5]", "value": "Active"},
      {"measurement": "viability at 0.03 µM", "setting": "[6]", "value": 0.71, "unit": "%"},
      {"measurement": "viability at 0.03 µM", "setting": "[7]", "value": 0.77, "unit": "%"},
      {"measurement": "Activity", "setting": "[8]", "value": "Active"},
      {"measurement": "Activity", "setting": "[9]", "value": "Non-Toxic"},
      {"measurement": "Activity", "setting": "[10]", "value": 4.06, "unit": "%"},
      {"measurement": "Activity", "setting": "[11]", "value": "inactive"},
      {"measurement": "Activity", "setting": "[12]", "value": 1.37, "unit": "%"},
      {"measurement": "viability at 0.03 µM", "setting": "[13]", "value": 0.24, "unit": "%"},
      {"measurement": "Activity", "setting": "[14]", "value": "inactive"},
      {"measurement": "viability at 0.03 µM", "setting": "[15]", "value": 0.38, "unit": "%"},
      {"measurement": "Activity", "setting": "[16]", "value": 4.09, "unit": "%"},
      {"measurement": "Activity", "setting": "[17]", "value": "Non-Toxic"},
      {"measurement": "Activity", "setting": "[18]", "value": "Active"},
      {"measurement": "Activity", "setting": "[19]", "value": 2.94, "unit": "%"},
      {"measurement": "CI", "setting": "[20]", "value": "<1"},
      {"measurement": "inhibition", "setting": "[21]", "value": "Active"},
      {"measurement": "Activity", "setting": "[22]", "value": 6.13, "unit": "%"},
      {"measurement": "Activity", "setting": "[23]", "value": "Active"},
      {"measurement": "viability at 0.03 µM", "setting": "[24]", "value": 89.4, "unit": "%"},
      {"measurement": "half-life", "setting": "[25]", "value": 232, "unit": "min"},
      {"measurement": "fold change (FC)", "setting": "[26]", "value": "~4"},
      {"measurement": "viability at 0.03 µM", "setting": "[27]", "value": 0.23, "unit": "%"},
      {"measurement": "viability at 0.03 µM", "setting": "[28]", "value": 0.28, "unit": "%"},
      {"measurement": "inhibition in vivo at 30 mg/kg", "setting": "[29]", "value": 100, "unit": "%"},
      {"measurement": "viability at 0.03 µM", "setting": "[30]", "value": 0.43, "unit": "%"},
      {"measurement": "viability at 0.03 µM", "setting": "[31]", "value": 0.85, "unit": "%"}
    ]}
  ]
}
